# Tests used:
# Assay in all cases: relative viability (nuclei count vs DMSO), 5 days (fraction); higher = more cells survive
# Lapatinib = compound: CS(=O)(=O)CCNCc1ccc(-c2ccc3ncnc(Nc4ccc(OCc5cccc(F)c5)c(Cl)c4)c3c2)o1 [Lapatinib]
# Summary of the method: (§1)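 On vehicle-anchored 1536-well plates, lung cancer cell lines held overnight at 37 °C were pinned with five library-drug doses (not always all listed) spaced by √10. With no medium change over 5 days, they were then fixed, permeabilised and Hoechst-stained in one step and imaged at 4×. MetaXpress counted nuclei, and viability is the median across plates of treated-well over vehicle-well nuclei. Acceptance needed control CV below 25% and at least one doubling.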
# Wnt-C59 = compound: CC1=NC=CC(=C1)C2=CC=C(C=C2)CC(=O)NC3=CC=C(C=C3)C4=CN=CC=C4 [Wnt-C59]
# Summary of the method: as §1
# Lapatinib + Vorinostat = compound: CS(=O)(=O)CCNCc1ccc(-c2ccc3ncnc(Nc4ccc(OCc5cccc(F)c5)c(Cl)c4)c3c2)o1 [Lapatinib] + O=C(CCCCCCC(=O)Nc1ccccc1)NO [Vorinostat] (partner 1 µM)
# Summary of the method: (§2)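 Each reported value is a median over duplicate plates. It expresses relative viability: treated-well nuclei count divided by vehicle-well nuclei count. Lung cancer cell lines in 1536-well plates were dosed by pin tool a day after seeding, alone with one drug or with a fixed anchor-drug dose plus five library-drug doses (not always all listed) in √10 steps, and nuclei were counted after 5 days.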
# Wnt-C59 + Lapatinib = compound: CC1=NC=CC(=C1)C2=CC=C(C=C2)CC(=O)NC3=CC=C(C=C3)C4=CN=CC=C4 [Wnt-C59] + CS(=O)(=O)CCNCc1ccc(-c2ccc3ncnc(Nc4ccc(OCc5cccc(F)c5)c(Cl)c4)c3c2)o1 [Lapatinib] (partner 2 µM)
# Summary of the method: as §2
cell line,measurement,setting,value
LU99A,relative viability,Lapatinib; 0.02 µM,0.883
same,relative viability,Lapatinib; 0.06325 µM,0.757
same,relative viability,Lapatinib; 0.2 µM,0.852
same,relative viability,Lapatinib; 0.6325 µM,0.871
same,relative viability,Lapatinib; 2 µM,0.897
same,relative viability,"Lapatinib; 2 µM, anchor plate",1.03
same,relative viability,Wnt-C59; 0.001 µM,0.946
same,relative viability,Wnt-C59; 0.01 µM,0.923
same,relative viability,Wnt-C59; 0.03162 µM,1.09
same,relative viability,Wnt-C59; 0.1 µM,0.936
same,relative viability,Lapatinib + Vorinostat; first compound 0.02 µM,0.49
same,relative viability,Lapatinib + Vorinostat; first compound 0.06325 µM,0.358
same,relative viability,Lapatinib + Vorinostat; first compound 0.2 µM,0.506
same,relative viability,Lapatinib + Vorinostat; first compound 0.6325 µM,0.426
same,relative viability,Lapatinib + Vorinostat; first compound 2 µM,0.469
same,relative viability,Wnt-C59 + Lapatinib; first compound 0.001 µM,0.905
same,relative viability,Wnt-C59 + Lapatinib; first compound 0.01 µM,0.999
same,relative viability,Wnt-C59 + Lapatinib; first compound 0.03162 µM,1.07
same,relative viability,Wnt-C59 + Lapatinib; first compound 0.1 µM,0.97
NCI-H1793,relative viability,Lapatinib; 0.06325 µM,0.642
same,relative viability,Lapatinib; 0.2 µM,0.732
same,relative viability,Lapatinib; 0.6325 µM,0.803
same,relative viability,Lapatinib; 2 µM,0.544
same,relative viability,"Lapatinib; 2 µM, anchor plate",0.714
same,relative viability,Wnt-C59; 0.001 µM,0.78
same,relative viability,Wnt-C59; 0.01 µM,0.681
same,relative viability,Wnt-C59; 0.03162 µM,1.1
same,relative viability,Wnt-C59; 0.1 µM,0.976
same,relative viability,Lapatinib + Vorinostat; first compound 0.06325 µM,0.495
same,relative viability,Lapatinib + Vorinostat; first compound 0.2 µM,0.646
same,relative viability,Lapatinib + Vorinostat; first compound 0.6325 µM,0.646
same,relative viability,Lapatinib + Vorinostat; first compound 2 µM,0.42
same,relative viability,Wnt-C59 + Lapatinib; first compound 0.001 µM,0.787
same,relative viability,Wnt-C59 + Lapatinib; first compound 0.01 µM,0.555
same,relative viability,Wnt-C59 + Lapatinib; first compound 0.03162 µM,0.717
same,relative viability,Wnt-C59 + Lapatinib; first compound 0.1 µM,0.855
NCI-H2085,relative viability,Lapatinib; 0.02 µM,0.83
same,relative viability,Lapatinib; 0.06325 µM,0.854
same,relative viability,Lapatinib; 0.2 µM,0.958
same,relative viability,Lapatinib; 0.6325 µM,0.937
same,relative viability,Lapatinib; 2 µM,0.859
same,relative viability,"Lapatinib; 2 µM, anchor plate",0.773
same,relative viability,Wnt-C59; 0.001 µM,1.02
same,relative viability,Wnt-C59; 0.01 µM,0.98
same,relative viability,Wnt-C59; 0.03162 µM,1
same,relative viability,Wnt-C59; 0.1 µM,0.953
same,relative viability,Lapatinib + Vorinostat; first compound 0.02 µM,0.666
same,relative viability,Lapatinib + Vorinostat; first compound 0.06325 µM,0.716
same,relative viability,Lapatinib + Vorinostat; first compound 0.2 µM,0.795
same,relative viability,Lapatinib + Vorinostat; first compound 0.6325 µM,0.741
same,relative viability,Lapatinib + Vorinostat; first compound 2 µM,0.587
same,relative viability,Wnt-C59 + Lapatinib; first compound 0.001 µM,0.8
same,relative viability,Wnt-C59 + Lapatinib; first compound 0.01 µM,0.726
same,relative viability,Wnt-C59 + Lapatinib; first compound 0.03162 µM,0.771
same,relative viability,Wnt-C59 + Lapatinib; first compound 0.1 µM,0.819
NCI-H2126,relative viability,Lapatinib; 0.06325 µM,0.765
same,relative viability,Lapatinib; 0.2 µM,0.946
same,relative viability,Lapatinib; 0.6325 µM,0.994
same,relative viability,Lapatinib; 2 µM,0.927
same,relative viability,"Lapatinib; 2 µM, anchor plate",0.759
same,relative viability,Wnt-C59; 0.001 µM,1.02
same,relative viability,Wnt-C59; 0.01 µM,0.976
same,relative viability,Wnt-C59; 0.03162 µM,1.03
same,relative viability,Wnt-C59; 0.1 µM,1.04
same,relative viability,Lapatinib + Vorinostat; first compound 0.02 µM,0.251
same,relative viability,Lapatinib + Vorinostat; first compound 0.06325 µM,0.405
same,relative viability,Lapatinib + Vorinostat; first compound 0.2 µM,0.717
same,relative viability,Lapatinib + Vorinostat; first compound 0.6325 µM,0.801
same,relative viability,Lapatinib + Vorinostat; first compound 2 µM,0.614
same,relative viability,Wnt-C59 + Lapatinib; first compound 0.001 µM,0.78
same,relative viability,Wnt-C59 + Lapatinib; first compound 0.01 µM,0.731
same,relative viability,Wnt-C59 + Lapatinib; first compound 0.03162 µM,0.792
same,relative viability,Wnt-C59 + Lapatinib; first compound 0.1 µM,0.772
NCI-H2347,relative viability,Lapatinib; 0.02 µM,0.7
same,relative viability,Lapatinib; 0.06325 µM,0.999
same,relative viability,Lapatinib; 0.2 µM,0.943
same,relative viability,Lapatinib; 0.6325 µM,1.05
same,relative viability,Lapatinib; 2 µM,0.904
same,relative viability,"Lapatinib; 2 µM, anchor plate",0.905
same,relative viability,Wnt-C59; 0.001 µM,1.05
same,relative viability,Wnt-C59; 0.01 µM,1.01
same,relative viability,Wnt-C59; 0.03162 µM,1.03
same,relative viability,Wnt-C59; 0.1 µM,0.997
same,relative viability,Lapatinib + Vorinostat; first compound 0.02 µM,0.501
same,relative viability,Lapatinib + Vorinostat; first compound 0.06325 µM,0.629
same,relative viability,Lapatinib + Vorinostat; first compound 0.2 µM,0.554
same,relative viability,Lapatinib + Vorinostat; first compound 0.6325 µM,0.689
same,relative viability,Lapatinib + Vorinostat; first compound 2 µM,0.547
same,relative viability,Wnt-C59 + Lapatinib; first compound 0.001 µM,0.961
same,relative viability,Wnt-C59 + Lapatinib; first compound 0.01 µM,0.861
same,relative viability,Wnt-C59 + Lapatinib; first compound 0.03162 µM,0.976
same,relative viability,Wnt-C59 + Lapatinib; first compound 0.1 µM,0.854
NCI-H1437,relative viability,Lapatinib; 0.02 µM,0.919
same,relative viability,Lapatinib; 0.06325 µM,0.988
same,relative viability,Lapatinib; 0.2 µM,0.987
same,relative viability,Lapatinib; 0.6325 µM,0.914
same,relative viability,Lapatinib; 2 µM,0.918
same,relative viability,"Lapatinib; 2 µM, anchor plate",0.794
same,relative viability,Wnt-C59; 0.001 µM,0.997
same,relative viability,Wnt-C59; 0.01 µM,0.997
same,relative viability,Wnt-C59; 0.03162 µM,1
same,relative viability,Wnt-C59; 0.1 µM,1.03
same,relative viability,Lapatinib + Vorinostat; first compound 0.02 µM,0.782
same,relative viability,Lapatinib + Vorinostat; first compound 0.06325 µM,0.861
same,relative viability,Lapatinib + Vorinostat; first compound 0.2 µM,0.825
same,relative viability,Lapatinib + Vorinostat; first compound 0.6325 µM,0.793
same,relative viability,Lapatinib + Vorinostat; first compound 2 µM,0.527
same,relative viability,Wnt-C59 + Lapatinib; first compound 0.001 µM,0.851
same,relative viability,Wnt-C59 + Lapatinib; first compound 0.01 µM,0.8
same,relative viability,Wnt-C59 + Lapatinib; first compound 0.03162 µM,0.89
same,relative viability,Wnt-C59 + Lapatinib; first compound 0.1 µM,0.828
NCI-H2170,relative viability,Lapatinib; 0.02 µM,0.953
same,relative viability,Lapatinib; 0.06325 µM,0.913
same,relative viability,Lapatinib; 0.2 µM,0.762
same,relative viability,Lapatinib; 0.6325 µM,0.72
same,relative viability,Lapatinib; 2 µM,0.332
same,relative viability,"Lapatinib; 2 µM, anchor plate",0.276
same,relative viability,Wnt-C59; 0.001 µM,0.997
same,relative viability,Wnt-C59; 0.01 µM,0.879
same,relative viability,Wnt-C59; 0.03162 µM,0.939
same,relative viability,Wnt-C59; 0.1 µM,0.975
same,relative viability,Lapatinib + Vorinostat; first compound 0.02 µM,0.726
same,relative viability,Lapatinib + Vorinostat; first compound 0.06325 µM,0.747
same,relative viability,Lapatinib + Vorinostat; first compound 0.2 µM,0.578
same,relative viability,Lapatinib + Vorinostat; first compound 0.6325 µM,0.582
same,relative viability,Lapatinib + Vorinostat; first compound 2 µM,0.372
same,relative viability,Wnt-C59 + Lapatinib; first compound 0.001 µM,0.265
same,relative viability,Wnt-C59 + Lapatinib; first compound 0.01 µM,0.262
same,relative viability,Wnt-C59 + Lapatinib; first compound 0.03162 µM,0.275
same,relative viability,Wnt-C59 + Lapatinib; first compound 0.1 µM,0.271
NCI-H1650,relative viability,Lapatinib; 0.02 µM,0.809
same,relative viability,Lapatinib; 0.06325 µM,0.73
same,relative viability,Lapatinib; 0.2 µM,0.851
same,relative viability,Lapatinib; 0.6325 µM,0.834
same,relative viability,Lapatinib; 2 µM,0.737
same,relative viability,"Lapatinib; 2 µM, anchor plate",0.805
same,relative viability,Wnt-C59; 0.001 µM,1.02
same,relative viability,Wnt-C59; 0.01 µM,0.898
same,relative viability,Wnt-C59; 0.03162 µM,0.957
same,relative viability,Wnt-C59; 0.1 µM,0.826
same,relative viability,Lapatinib + Vorinostat; first compound 0.02 µM,0.474
same,relative viability,Lapatinib + Vorinostat; first compound 0.06325 µM,0.578
same,relative viability,Lapatinib + Vorinostat; first compound 0.2 µM,0.554
same,relative viability,Lapatinib + Vorinostat; first compound 0.6325 µM,0.516
same,relative viability,Lapatinib + Vorinostat; first compound 2 µM,0.664
same,relative viability,Wnt-C59 + Lapatinib; first compound 0.001 µM,0.761
same,relative viability,Wnt-C59 + Lapatinib; first compound 0.01 µM,0.74
same,relative viability,Wnt-C59 + Lapatinib; first compound 0.03162 µM,0.708
same,relative viability,Wnt-C59 + Lapatinib; first compound 0.1 µM,0.698

# — the supplement of paper PMC10307832
